The source of these data is US9440913B2, “Dihydroxybenzene derivatives and antiprotozoal agent comprising same as active ingredient” (NAI INC., priority 2010, dated 2016).

Where two headings read alike, the source gives them in different places.

For data set [1], the target named is T1, recombinant Trypanosome AOX (TAO) enzyme (Trypanosoma brucei brucei, UniProt Q26710).
T1 construct: made in house; host or cells: Escherichia coli (membrane fraction)
As to the kind of experiment: TAO enzyme inhibition (quinol oxidase activity, ubiquinol-1 substrate). The data set is classed as biochemical, T. brucei brucei. As to conditions: TAO-expressing E. coli membrane fraction, 25° C., ubiquinol-1, absorbance at 278 nm. As to the method: Escherichia coli membrane fractions that express TAO by a plasmid harboring TAO cDNA cloned from T. brucei brucei (Fukai, Comparative Biochemistry & Physiology, 124, 141-148, 1999) were used as a recombinant Trypanosome AOX (TAO) enzyme. 50 mM Tris-HCl (pH 7.5), TAO-expressing membrane fraction (0.35 ng), and […] of an inhibitor were mixed in a 1 mL cuvette, and the mixture was incubated at 25° C. for 4 minutes. Ubiquinol-1 as a substrate was then added to the mixture to initiated the reaction, and change in absorbance at 278 nm was monitored (Shimadzu UV-3000, molar absorption coefficient ε=15 cm^−1 mM^−1).

In data set [2] the target is Cryptosporidium cyanide insensitive oxidase (AOX), recombinant protein (cCpAOX) (Cryptosporidium parvum, UniProt Q761U6). The experiment in a line: CpAOX enzyme inhibition. The class given is biochemical. The text has this:
Cryptosporidium has found to have cyanide insensitive oxidase (AOX), and its inhibitory activity was observed using its recombinant protein (cCpAOX) produced in E. coli.

For the next data set, the system named is T. b. rhodesiense IL1501. As to the kind of experiment: Antiprotozoal effect, MIC measurement in HMI-9 culture. The class given is cell-based. To be noted: Trypanosoma brucei, RHODESIENSE, 24 h, bloodstream forms, 18 + 6 hours culture. As to the method: T. b. rhodesiense IL1501, the human infectious protozoan that causes acute symptoms, was used as a Trypanosomatid protozoan. The bloodstream forms of protozoan can be cultured in a HMI-9 culture medium (Hirumi, 1989). The protozoan was always cultured at a temperature of 37° C. in the presence of 5% CO2.
In a microtiter plate (96-well, FALCON 3072), HMI-9 culture medium and HMI-9 culture medium plus glycerol added to make a final concentration of 8.33 mM are separately prepared. 89 μL of the preparation are put into only the first well, and a 60 μL aliquot of each the other wells. 1 μL of a solution of AF or a AF derivative dissolved in DMSO was added to the first well, and was then suspended. A 30 μL aliquot of the suspension was then collected, was transferred to the second well, and was suspended. These operations were repeated in this order to prepare a three-fold dilution series of drug. A 40 μL aliquot of a protozoan culture was added to each well to make a final concentration of 5×10^4 cells/well (a final concentration of glycerol of 5 mM) followed by 18-hours culturing under conditions of 37° C. and 5% CO2. (For EC50 measurement, a 10 μL aliquot of Alamar Blue was added to each well), culturing was carried out under the same conditions for 6 more hours, surviving protozoans were visually observed with a microscope. The concentration at which no motile surviving protozoan was observed was defined as MIC.

Setting [3] is: Glycerol (+), final concentration of glycerol of 5 mM.

T1 sequence (Q26710 whole entry): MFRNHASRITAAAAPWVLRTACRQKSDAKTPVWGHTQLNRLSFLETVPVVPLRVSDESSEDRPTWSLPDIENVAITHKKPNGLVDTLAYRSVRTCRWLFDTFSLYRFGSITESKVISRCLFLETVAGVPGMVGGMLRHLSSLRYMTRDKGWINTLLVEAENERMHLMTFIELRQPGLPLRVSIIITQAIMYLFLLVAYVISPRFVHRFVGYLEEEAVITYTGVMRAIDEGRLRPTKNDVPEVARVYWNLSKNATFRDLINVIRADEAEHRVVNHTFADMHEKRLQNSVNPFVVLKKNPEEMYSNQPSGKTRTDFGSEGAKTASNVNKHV
Cryptosporidium cyanide insensitive oxidase (AOX), recombinant protein (cCpAOX), sequence (Q761U6 entry or part of it): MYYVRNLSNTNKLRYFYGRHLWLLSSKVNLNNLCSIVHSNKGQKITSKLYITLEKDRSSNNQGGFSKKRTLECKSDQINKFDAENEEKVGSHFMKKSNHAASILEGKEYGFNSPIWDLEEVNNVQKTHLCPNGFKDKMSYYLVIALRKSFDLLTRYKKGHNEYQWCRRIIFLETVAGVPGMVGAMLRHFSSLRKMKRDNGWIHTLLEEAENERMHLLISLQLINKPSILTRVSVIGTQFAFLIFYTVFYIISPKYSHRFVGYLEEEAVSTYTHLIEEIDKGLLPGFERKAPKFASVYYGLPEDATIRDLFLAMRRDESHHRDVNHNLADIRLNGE

Usually IC50 stands for the midpoint of a concentration-inhibition curve. The term melting point denotes the temperature, or range, at which the solid turns liquid. `Cc1c(Cl)c(O)c(/C=C/CCCCCCCOC(=O)C(C)(C)C)c(O)c1C=O` [Compound 200-13-OPiv, (E)-9-(3-Chloro-5-formyl-2,6-dihydroxy-4-methylphenyl)-8-nonenyl pivalate] yielded a melting point of 69 to 70 °C. Also, the IC50 in data set [1] is 0.32 nM. In addition, the IC50 in data set [2] is 2.2 nM.
A word on the MIC: it is the lowest concentration that inhibits growth of the organism. For the compound `Cc1c(Cl)c(O)c(C/C=C/CCCCCOC(=O)C(C)(C)C)c(O)c1C=O` [Compound 206-12-OPiv, (E)-8-(3-Chloro-5-formyl-2,6-dihydroxy-4-methylphenyl)-6-octenyl pivalate], the IC50 in data set [1] is 0.27 nM; in data set [2] it was 2.1 nM. The figures for the MIC in the data set with T. b. rhodesiense IL1501 (setting [3]) and in the data set with T. b. rhodesiense IL1501 (Glycerol (−)) were 0.006 nM and 0.024 nM, respectively.
`Cc1c(Cl)c(O)c(CCCCCCCCCC(=O)O)c(O)c1C=O` [Compound 215-11-COOH, 10-(3-Chloro-5-formyl-2,6-dihydroxy-4-methylphenyl)decanoic acid] had a melting point of 154 to 156 °C. In data set [1], the IC50 is 1.5 nM. Moreover, the MIC with T. b. rhodesiense IL1501 (setting [3]) is 1500 nM. In addition, in the data set on T. b. rhodesiense IL1501 (Glycerol (−)), the MIC came to 4000 nM. The 50% inhibitory concentration (IC50) in data set [2] was 2.1 nM.
Taken in the same sequence, the figures for `CC(=O)OCCCCCCCCc1c(O)c(Cl)c(C)c(C=O)c1O` [Compound 215-11-OAc, 8-(3-Chloro-5-formyl-2,6-dihydroxy-4-methylphenyl)octyl acetate] were 68 °C, 0.6 nM, 7.7 nM, 68 nM and 2.7 nM.
On the same counts, the results for `Cc1c(Cl)c(O)c(CCCCCCCOC(=O)C(C)(C)C)c(O)c1C=O` [Compound 215-11-OPiv, 7-(3-Chloro-5-formyl-2,6-dihydroxy-4-methylphenyl)heptyl pivalate] are 63 to 64 °C, 0.25 nM, 0.094 nM, 0.88 nM and 1.4 nM.
Compound `COC(=O)CCCCCCCCCc1c(O)c(Cl)c(C)c(C=O)c1O` [Compound 215-12-COOMe, Methyl 10-(3-chloro-5-formyl-2,6-dihydroxy-4-methylphenyl)decanoate] gave a melting point of 87 to 88 °C. In data set [1], the IC50 came to 0.25 nM. In addition, the MIC with T. b. rhodesiense IL1501 (setting [3]) was found to be 5.7 nM. The MIC with T. b. rhodesiense IL1501 (Glycerol (−)) turned out to be 38 nM. In addition, the IC50 in data set [2] came to 1.5 nM.
In turn, `CCC(=O)OCCCCCCCCc1c(O)c(Cl)c(C)c(C=O)c1O` [Compound 215-12-OCOEt, 8-(3-Chloro-5-formyl-2,6-dihydroxy-4-methylphenyl)octyl propionate] displayed a melting point of 63 to 64 °C. In addition, the IC50 in data set [1] came to 0.29 nM. The IC50 in data set [2] worked out at 2.2 nM.
In the case of `Cc1c(Cl)c(O)c(CCCCCCCCOC(=O)C(C)C)c(O)c1C=O` [Compound 215-12-OCOiPr, 8-(3-Chloro-5-formyl-2,6-dihydroxy-4-methylphenyl)octyl isobutylate], the IC50 in data set [1] turned out to be 0.29 nM; in data set [2] (recombinant protein produced in E. coli, read-out: CpAOX enzyme inhibition (IC50:nM)) it was 3.7 nM.
The compound `Cc1c(Cl)c(O)c(CCCCCCCCOC(=O)C(C)(C)C)c(O)c1C=O` [Compound 215-12-OPiv, 8-(3-Chloro-5-formyl-2,6-dihydroxy-4-methylphenyl)octyl pivalate] showed a melting point of 70 to 71 °C. The IC50 in data set [1] came to 0.32 nM. In addition, the MIC with T. b. rhodesiense IL1501 (setting [3]) is 0.49 nM. The MIC in the data set on T. b. rhodesiense IL1501 (Glycerol (−)) was determined as 1.9 nM. For the same compound, the IC50 in data set [2] was found to be 2.7 nM.
Consider `Cc1c(Cl)c(O)c(CCCCCCCCCC(=O)OC(C)(C)C)c(O)c1C=O` [Compound 215-13-COOBu, tert-Butyl 10-(3-chloro-2,6-dihydroxy-5-formyl-4-methylphenyl)decanoate], for which the IC50 in data set [1] worked out at 0.25 nM; in data set [2], 0.92 nM. Besides, the MIC in the data set on T. b. rhodesiense IL1501 (setting [3]) worked out at 1.2 nM; with T. b. rhodesiense IL1501 (Glycerol (−)) it was 16 nM.
Compound `Cc1c(Cl)c(O)c(CCCCCCCCCC(=O)OC(C)C)c(O)c1C=O` [Compound 215-13-COOiPr, Isopropyl 10-(3-chloro-2,6-dihydroxy-5-formyl-4-methylphenyl)decanoate] had a melting point of 49 °C. For the same compound, the IC50 in data set [1] was determined as 0.43 nM. Besides, the minimal inhibitory concentration (MIC) with T. b. rhodesiense IL1501 (setting [3]) was determined as 0.061 nM. For the same compound, in the data set on T. b. rhodesiense IL1501 (Glycerol (−)), the MIC was 1.7 nM. Besides, in data set [2], the IC50 worked out at 2.2 nM.
As for `CCOC(=O)CCCCCCCCCCCc1c(O)c(Cl)c(C)c(C=O)c1O` [Compound 215-15-COOEt, Ethyl 12-(3-chloro-5-formyl-2,6-dihydroxy-4-methylphenyl)dodecanoate], the IC50 in data set [1] is 0.3 nM; in data set [2], 1.8 nM.
On to `Cc1c(Cl)c(O)c(CCCCCCCCCCCC(=O)OC(C)C)c(O)c1C=O` [Compound 215-15-COOiPr, Isopropyl 12-(3-chloro-5-formyl-2,6-dihydroxy-4-methylphenyl)dodecanoate], for which the melting point was in the range of 82 to 83 °C. The IC50 in data set [1] was found to be 0.32 nM. Further, the IC50 in data set [2] was 2.5 nM.
As for `Cc1c(Cl)c(O)c(CCCCCCCC(=O)Oc2c3ccccc3cc3ccccc23)c(O)c1C=O` [Compound 215-18-Anthra, 9-Anthryl 8-(3-chloro-5-formyl-2,6-dihydroxy-4-methylphenyl)octanate], the results for the IC50 in data set [1] and in data set [2] were 0.5 nM and 2.6 nM, respectively. The MIC stood at 3.8 nM in the data set on T. b. rhodesiense IL1501 (setting [3]) and 6.6 nM with T. b. rhodesiense IL1501 (Glycerol (−)).
With `Cc1c(Cl)c(O)c(CCC(C)CCCC(C)COC(=O)C(C)(C)C)c(O)c1C=O` (stereo not shown) [Compound 235-12-OPiv, 8-(3-Chloro-5-formyl-2,6-dihydroxy-4-methylphenyl)-2,6-dimethyloctyl pivalate], the 50% inhibitory concentration (IC50) in data set [2] worked out at 2.3 nM.
Consider `Cc1c(Cl)c(O)c(CCC(C)CCCCOC(=O)C(C)(C)C)c(O)c1C=O` (stereo not shown) [Compound 265-11-OPiv, 7-(3-Chloro-2,6-dihydroxy-5-formyl-4-methylphenyl)-5-methylheptyl pivalate], for which the figures for the IC50 in data set [1] and in data set [2] were 0.36 nM and 2.3 nM, respectively.
On to `COC(CC(=O)C(C)(C)C)/C(C)=C/CC/C(C)=C/Cc1c(O)c(Cl)c(C)c(C=O)c1O` (stereo not shown) [Compound 271-12], for which the IC50 came to 0.22 nM in data set [1] and 1.6 nM in data set [2]. Further, the MIC is 0.0023 nM in the data set with T. b. rhodesiense IL1501 (setting [3]) and 0.056 nM in the data set with T. b. rhodesiense IL1501 (Glycerol (−)).
On the same counts, the results for `CC(/C=C/C(=O)C(C)(C)C)=C\CC/C(C)=C/Cc1c(O)c(Cl)c(C)c(C=O)c1O` [Compound 273-12, 3-Chloro-4,6-dihydroxy-2-methyl-5-[(2E,6E,8E)-3,7,11,11-tetramethyl-10-oxo-2,6,8-dodecatrienyl]benzaldehyde] are 0.23 nM, 2.2 nM, 1.9 nM and 3.7 nM.
On the same counts, the results for `COC(=O)/C(C)=C/CC/C(C)=C/Cc1c(O)c(Cl)c(C)c(C=O)c1O` [Compound 275-10-COOMe, Methyl (2E,6E)-8-(3-Chloro-5-formyl-2,6-dihydroxy-4-methyl)phenyl-2,6-dimethyl-2,6-octadienate] are 0.38 nM, 1.2 nM, 1.1 nM and 8.7 nM.
In the case of `CC(C)=CCC/C=C/Cc1c(O)c(Cl)c(C)c(C=O)c1O` [Compound 278-8, (E)-3-Chloro-4,6-dihydroxy-2-methyl-5-(7-methyl-2,6-octadienyl)benzaldehyde], the IC50 in data set [1] came out at 0.25 nM; in data set [2], 1.2 nM. Also, the MIC in the data set on T. b. rhodesiense IL1501 (setting [3]) came out at 7.4 nM; with T. b. rhodesiense IL1501 (Glycerol (−)), 14 nM.
Take `CC(=O)c1c(C)c(Cl)c(O)c(C/C=C(\C)CC/C=C(\C)CCC=C(C)C)c1O` [Compound 282-12, (E,E)-3-Chloro-4,6-dihydroxy 5-(3,7,11-trimethyl-2,6,10-dodecathenyl)-2-methylacetophenone]: the melting point lay in the range of 92 to 93 °C. Besides, in data set [1], the half-maximal inhibitory concentration (IC50) was 0.15 nM. The MIC with T. b. rhodesiense IL1501 (setting [3]) was 11 nM. The MIC in the data set on T. b. rhodesiense IL1501 (Glycerol (−)) is 19 nM.
As for `Cc1c(Cl)c(O)c(CCCCCCCCCC(=O)OCC2COC(=O)O2)c(O)c1C=O` (stereo not shown) [Compound 501-16-G, 1,3 Dioxolane-2-oxo-4-methyl 10-(3-chloro-5-formyl-2,6-dihydroxy-4-methylphenyl)decanoate], the melting point was 70 to 72 °C. Further, in data set [1], the IC50 is 0.32 nM. Besides, the MIC in the data set on T. b. rhodesiense IL1501 (setting [3]) amounted to 1800 nM. For the same compound, the MIC in the data set with T. b. rhodesiense IL1501 (Glycerol (−)) was 14000 nM.
